Assay results: US20080125400A1, “USE OF PHOSPHOENOLPYRUVATE DERIVATIVES” (priority 2006, published 2008)

Tested on: troponin I
Assay: Randomized double-blind trial of PEPA in blood-based STH cardioplegia; blood troponin I by immunoassay (ADVIA Centaur)
Assay type: in vivo, human
Conditions: patients undergoing coronary artery bypass surgery; versus STH without PEPA
Description: A study was carried out to determine the effect of PEPA on heart tissue in patients with ischemic heart disease undergoing coronary artery bypass surgery. The study was a randomized, double-blind, parallel group, comparative trial that compared the effect during surgery (and shortly thereafter) of the presence or absence of a single dose of PEPA in blood-based STH.
The patients were assigned randomly to one of two groups. For the first group, PEPA was made up in a concentration of 495 μM/L as a single dose added to blood-based STH (“PEPA+STH”). Normal blood-based STH (without PEPA) was administered to the second group. There were 37 patients in each group.
PEPA was made up under sterile conditions in 40 ml of Ringer's solution and then filtered using a sterile 0.22 μm filter to sterilize the solution. Ten mL aliquots of the sterile PEPA solution were measured and added to each of three 1 L bags of Ringer's solution under sterile conditions providing a Ringer's solution containing 990 μM/L PEPA. […]
A sample of blood was collected from each patient at regular intervals during surgery (at the time of anaesthesia and at 6 and 12 hours after the start of surgery) and after surgery (at 24, 48 and 72 hours after the start of surgery). Each sample was analyzed by an immunoassay method using an ADVIA Centaur® system to determine the level of troponin I. […]

SMILES: C=C(OP(=O)(O)O)C(N)=O [PEPA, 2-(dihydroxyphosphoryloxy)prop-2-enoic amide]
- overall concentration of troponin I in the blood over the period studied: markedly reduces
